# Measurements from patent publication US10323028B2, “1,3,4-thiadiazole compounds and their use in treating cancer” (AstraZeneca AB, priority 2015, dated 2019).
# Read-outs that look alike come from different tables or passages of the source.
# How the values were obtained:
# NCI-H1703 cells = experiment: GLS Cell Proliferation Assay (NCI-H1703 cell proliferation); format: cell-based
# Text: (§1) The following assays were used to measure the effects of the compounds described herein: a) GLS Enzyme Potency Assay; b) GLS Cell Potency Assay; c) GLS Cell Proliferation Assay. During the description of the assays, generally: • i. The following abbreviations have been used: CO2=Carbon dioxide; DMEM=Dulbecco's Modified Eagle Medium; DMSO=Dimethyl sulphoxide; EDTA=Ethylenediaminetetraacetic acid; EGTA=Ethylene glycol tetraacetic acid; FCS=Foetal calf serum; h=Hour(s); NBS=Non-binding surface; SDS=Sodium dodecyl sulphate; TRIS=Tris(Hydroxymethyl)aminomethane. • ii. IC50 values were calculated using a smart fitting model in Genedata.
# Assay c): GLS Cell Proliferation Assay
# The ability of compounds to inhibit cell growth was measured using a 384 well plate NCI-H1703 cell proliferation assay. NCI-H1703 cells were grown in phenol red free RPMI1640, 10% FCS and 2 mM glutamine and seeded at a density of 750 cells per well in 40 μl of growth medium into clear-bottom 384 well assay plates (Corning product code 3712) and incubated for 24 h at 37° C., 5% CO2. […] DMSO concentration was maintained at 0.3% by back filling with DMSO solution. Plates were incubated for 5 days at 37° C., 5% CO2, Sytox Green and Saponin added to final concentration of 2 μM and 0.25% respectively and incubated for 6 h prior to analysis. […] IC50 values were calculated by curve fitting to max inhibition of day zero growth using GeneData software analysis.
# GLS1 = GLS1 (Homo sapiens (Human), UniProt O94925); experiment: GLS Enzyme Potency Assay (Glutamate Oxidase/AmplexRed coupled assay); format: biochemical; details: 6His tagged GLS protein (amino acids 63-669), recombinant; read-out: Assay a) enz IC50
# Text: as §1
# Assay a): GLS Enzyme Potency Assay
# A Glutamate Oxidase/AmplexRed coupled assay was used to measure the ability of compounds to bind to and inhibit the activity of GLS1 in vitro. […] GLS1 was diluted to 2× working concentration and incubated at room temperature to allow the tetrameric/dimeric forms to reach steady state. Assay measurements were performed in buffer comprising 50 mM TRIS pH 7.8, 100 mM NaPO4, pH 7.8, 0.001% v/v Tween20. Purified recombinant GLS1 protein was diluted in assay buffer to 12 nM and pre-incubated at room temperature for 30 minutes. […] DMSO concentration was maintained at 2% by back filling with DMSO solution. 3 μL of diluted GLS1 protein (12 nM) was then dispensed into each well using a BioRaptr automated dispenser (Beckman-Coulter) and incubated for 15 minutes at room temperature. 3 μL of 100 mM glutamine diluted in assay buffer was then added and the reaction incubated at room temperature for 60 minutes. […] An artefact version of the assay where the 6His tagged GLS protein and glutamine were replaced with assay buffer was also used to rule out non specific effects on the assay components.
# [1] = target: cellular GLS activity in PC3 cells (Homo sapiens (Human), UniProt O94925); experiment: GLS Cell Potency Assay (PC3 coupled assay measuring cellular glutamate depletion); format: cell-based; details: PC3 cells, 6 h incubation, glutamate depletion; read-out: Assay b) GLS cell MOA Mean IC50
# Text: as §1
# Assay b): GLS Cell Potency Assay
# Compounds were assessed for their potential to inhibit cellular GLS activity by use of a PC3 coupled assay measuring cellular glutamate depletion. […] DMSO concentration was maintained at 0.3% by back filling with DMSO solution. PC3 cells were grown in phenol free DMEM, 10% dialyzed FCS, 2 mM glutamine and following dispersal by trypsinisation were plated at 5.6×10^3 cells per well in 40 μl of growth medium directly into the 384 well assay plates containing dispensed compound. After incubation for 6 h at 37° C., 5% CO2 growth media was aspirated and cells lysed in 15 μl of buffer containing 10 mM TRIS pH7.4, 100 mM NaCl, 1 mM EDTA, 1 mM EGTA, 1 mM NaF, 20 mM Na4P2O7, 2 mM Na3VO4, 1% Triton X-100, 10% glycerol, 0.1% SDS and 0.5% deoxycholate.
# [2] = NCI-H1703 cells, 5 days; read-out: Assay c) Prolif Mean IC50
# [3] = Homo sapiens, NCI-H1703, 120 h, NCI-H1703 cells, 5 days; read-out: Assay c) Prolif Mean IC50
# GLS1, sequence (O94925 63-669): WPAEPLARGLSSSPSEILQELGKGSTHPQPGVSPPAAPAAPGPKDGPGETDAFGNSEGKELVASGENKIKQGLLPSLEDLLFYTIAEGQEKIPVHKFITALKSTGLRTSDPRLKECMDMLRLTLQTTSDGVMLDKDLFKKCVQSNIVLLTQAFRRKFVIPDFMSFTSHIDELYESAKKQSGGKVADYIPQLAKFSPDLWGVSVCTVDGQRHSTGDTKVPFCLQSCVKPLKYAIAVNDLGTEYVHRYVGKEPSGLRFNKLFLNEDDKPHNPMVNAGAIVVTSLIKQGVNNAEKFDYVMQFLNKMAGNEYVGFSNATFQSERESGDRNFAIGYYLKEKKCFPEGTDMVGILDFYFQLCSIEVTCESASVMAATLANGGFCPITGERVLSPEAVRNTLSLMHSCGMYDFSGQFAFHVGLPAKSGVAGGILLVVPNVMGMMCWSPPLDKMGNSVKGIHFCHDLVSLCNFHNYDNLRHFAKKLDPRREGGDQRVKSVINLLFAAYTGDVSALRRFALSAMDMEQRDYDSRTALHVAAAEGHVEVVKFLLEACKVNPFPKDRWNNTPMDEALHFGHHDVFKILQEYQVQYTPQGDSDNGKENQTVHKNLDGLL
# cellular GLS activity in PC3 cells, sequence (O94925 73-669): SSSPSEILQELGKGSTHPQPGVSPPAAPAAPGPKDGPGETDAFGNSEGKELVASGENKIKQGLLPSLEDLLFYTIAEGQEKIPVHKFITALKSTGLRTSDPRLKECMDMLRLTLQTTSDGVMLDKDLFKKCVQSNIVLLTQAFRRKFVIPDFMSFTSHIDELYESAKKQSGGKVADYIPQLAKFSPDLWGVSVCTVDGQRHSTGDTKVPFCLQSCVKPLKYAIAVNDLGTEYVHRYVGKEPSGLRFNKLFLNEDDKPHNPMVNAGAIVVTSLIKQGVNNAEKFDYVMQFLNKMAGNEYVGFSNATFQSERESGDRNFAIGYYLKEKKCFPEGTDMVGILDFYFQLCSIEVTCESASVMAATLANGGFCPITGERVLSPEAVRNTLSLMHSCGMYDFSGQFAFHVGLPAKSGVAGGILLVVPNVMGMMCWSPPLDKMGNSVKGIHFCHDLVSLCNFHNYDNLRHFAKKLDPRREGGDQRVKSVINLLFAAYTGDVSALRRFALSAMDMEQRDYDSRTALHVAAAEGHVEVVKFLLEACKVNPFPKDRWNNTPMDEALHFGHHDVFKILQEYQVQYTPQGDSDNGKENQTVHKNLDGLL
SMILES,IC50 (NCI-H1703 cells; [2]) [nM],IC50 (GLS1) [nM],further results
"CCO[C@H](C(=O)Nc1nnc(N[C@@H]2CCN(c3cccnn3)C2)s1)c1cccc(OC(F)(F)F)c1 (single isomer, unassigned) [19(b)]",7.59,–,–
"COc1cc(OC(F)(F)F)cc([C@H](OC)C(=O)Nc2nnc(N[C@@H]3CCN(c4cccnn4)C3)s2)c1 (single isomer, unassigned) [11(b)]",1.04,–,–
"CO[C@H](C(=O)Nc1nnc(N[C@@H]2CCN(c3cccnn3)C2)s1)c1ccc(F)c(N2CC(F)C2)c1 (single isomer, unassigned) [Example 8(a)]",–,–,IC50 (NCI-H1703 cells; [3]): 57.6 nM
"CO[C@H](C(=O)Nc1nnc(N[C@@H]2CCN(c3nccnn3)C2)s1)c1cccc(N2CC(F)(F)C2)c1 (single isomer, unassigned) [Example 14(a)]",5.89,91.5,–
"COC[C@H](C(=O)Nc1nnc(N[C@@H]2CCN(c3cccnn3)C2)s1)c1cccc(OC)c1 (single isomer, unassigned) [5(b)]",120,–,–
"COC1CN(c2cccc([C@H](OC)C(=O)Nc3nnc(N[C@@H]4CCN(c5nccnn5)C4)s3)c2)C1 (single isomer, unassigned) [Example 13(a)]",–,75.1,–
"COC[C@H](C(=O)Nc1nnc(N[C@@H]2CCN(c3ccc(C)nn3)C2)s1)c1ccccc1 (single isomer, unassigned) [Example 45(a)]",–,–,IC50 [1]: 147 nM
"COc1cc([C@H](OC)C(=O)Nc2nnc(N[C@@H]3CCN(c4cccnn4)C3)s2)cc(N2CC(F)C2)c1 (single isomer, unassigned) [10(b)]",–,–,IC50 (NCI-H1703 cells; [3]): 43.4 nM
"COC[C@H](C(=O)Nc1nnc(N[C@@H]2CCN(c3cccnn3)C2)s1)c1cccc(OC)c1 (single isomer, unassigned) [Example 5(a)]",11.7,–,–
"CCO[C@H](C(=O)Nc1nnc(N[C@@H]2CCN(c3cccnn3)C2)s1)c1cc(OC)cc(OC)c1 (single isomer, unassigned) [Example 6(a)]",2.2,–,–
"CO[C@H](C(=O)Nc1nnc(N[C@@H]2CCN(c3nccnn3)C2)s1)c1cccc(N2CC(F)(F)C2)c1 (single isomer, unassigned) [14(b)]",156,660,–
"COCC(C(=O)Nc1nnc(N[C@@H]2CCN(c3ccc(C)nn3)C2)s1)c1ccccc1 (single isomer, unassigned) [Example 45(a)]",–,1600,–
"COc1cc(OC(F)(F)F)cc([C@H](OC)C(=O)Nc2nnc(N[C@@H]3CCN(c4cccnn4)C3)s2)c1 (single isomer, unassigned) [Example 11(a)]",–,–,IC50 (NCI-H1703 cells; [3]): 1.7 nM
"COC1CN(c2cccc([C@H](OC)C(=O)Nc3nnc(N[C@@H]4CCN(c5ccc(C)nn5)C4)s3)c2)C1 (single isomer, unassigned) [12(b)]",524,–,–
"CCO[C@H](C(=O)Nc1nnc(N[C@@H]2CCN(c3cccnn3)C2)s1)c1cccc(OC(F)(F)F)c1 (single isomer, unassigned) [Example 19(a)]",2.61,–,–
"COc1cc(OC)cc([C@H](OC)C(=O)Nc2nnc(N[C@@H]3CCN(c4nccnn4)C3)s2)c1 (single isomer, unassigned) [16(b)]",–,689,–
"CO[C@H](C(=O)Nc1nnc(N[C@@H]2CCN(c3nccnn3)C2)s1)c1cccc(N2CC(F)C2)c1 (single isomer, unassigned) [15(b)]",376,1310,–
"COC1CN(c2cccc([C@H](OC)C(=O)Nc3nnc(N[C@@H]4CCN(c5ccc(C)nn5)C4)s3)c2)C1 (single isomer, unassigned) [Example 12(a)]",32.9,–,–
"CO[C@H](C(=O)Nc1nnc(N[C@@H]2CCN(c3nccnn3)C2)s1)c1cccc(N2CC(F)C2)c1 (single isomer, unassigned) [Example 15(a)]",11.6,77.6,–
"COC1CN(c2cccc([C@H](OC)C(=O)Nc3nnc(N[C@@H]4CCN(c5nccnn5)C4)s3)c2)C1 (single isomer, unassigned) [13(b)]",497,–,–
"CCO[C@H](C(=O)Nc1nnc(N[C@@H]2CCN(c3cccnn3)C2)s1)c1cccc(N2CC(OC)C2)c1 [Example 22(a), (2S)-2-ethoxy-2-[3-(3-methoxyazetidin-1-yl)phenyl]-N-[5-[[(3R)-1-pyridazin-3-ylpyrrolidin-3-yl]amino]-1,3,4-thiadiazol-2-yl]acetamide]",–,–,IC50 (NCI-H1703 cells; [3]): 5.35 nM
"COc1cc(OC)cc([C@H](OC)C(=O)Nc2nnc(N[C@@H]3CCN(c4nccnn4)C3)s2)c1 (single isomer, unassigned) [Example 16(a)]",–,25.2,IC50 (NCI-H1703 cells; [3]): 3.49 nM

# Continued, in another order:
IC50 (NCI-H1703 cells; [2]) [nM],SMILES,IC50 (GLS1) [nM],further results
98.7,"CCOC(C(=O)Nc1nnc(N[C@@H]2CCN(c3cccnn3)C2)s1)c1cccc(N2CC(F)C2)c1 (single isomer, unassigned) [Example 32]",188,–
1.56,"CCO[C@H](C(=O)Nc1nnc(N[C@@H]2CCN(c3cccnn3)C2)s1)c1cccc(OC(F)F)c1 (single isomer, unassigned) [Example 17(a)]",–,–
5.35,"CCOC(C(=O)Nc1nnc(N[C@@H]2CCN(c3cccnn3)C2)s1)c1cccc(N2CC(OC)C2)c1 (stereo partly drawn) [Example 33, 2-ethoxy-2-[3-(3-methoxyazetidin-1-yl)phenyl]-N-[5-[[(3R)-1-pyridazin-3-ylpyrrolidin-3-yl]amino]-1,3,4-thiadiazol-2-yl]acetamide]",–,–
122,"COC1CN(c2cccc([C@H](OC)C(=O)Nc3nnc(N[C@@H]4CCN(c5ccc(F)nn5)C4)s3)c2)C1 (single isomer, unassigned) [9(b)]",–,–
2.65,"CO[C@H](C(=O)Nc1nnc(N[C@@H]2CCN(c3cccnn3)C2)s1)c1ccc(F)c(OC(F)(F)F)c1 (single isomer, unassigned) [20(b)]",–,–
82.5,"COC(C(=O)Nc1nnc(N[C@@H]2CCN(c3ccc(C)nn3)C2)s1)c1cccc(N2CC(F)(F)C2)c1 (stereo partly drawn) [Example 40, 2-[3-(3,3-difluoroazetidin-1-yl)phenyl]-2-methoxy-N-[5-[[(3R)-1-(6-methylpyridazin-3-yl)pyrrolidin-3-yl]amino]-1,3,4-thiadiazol-2-yl]acetamide]",311,–
6.57,"CO[C@H](C(=O)Nc1nnc(N[C@@H]2CCN(c3cccnn3)C2)s1)c1ccc(F)c(OC(F)(F)F)c1 (single isomer, unassigned) [Example 20(a)]",–,–
28.6,"CO[C@H](C(=O)Nc1nnc(N[C@@H]2CCN(c3cccnn3)C2)s1)c1cccc(N2CC(F)(F)C2)c1 (single isomer, unassigned) [2(b)]",–,–
303,"COC(C(=O)Nc1nnc(N[C@@H]2CCN(c3cccnn3)C2)s1)c1ccc(F)c(N2CC(F)(F)C2)c1 (stereo partly drawn) [Example 38, 2-[3-(3,3-difluoroazetidin-1-yl)-4-fluoro-phenyl]-2-methoxy-N-[5-[[(3R)-1-pyridazin-3-ylpyrrolidin-3-yl]amino]-1,3,4-thiadiazol-2-yl]acetamide]",190,–
4.9,"COC1CN(c2cccc([C@H](OC)C(=O)Nc3nnc(N[C@@H]4CCN(c5ccc(F)nn5)C4)s3)c2)C1 (single isomer, unassigned) [Example 9(a)]",–,–
34.9,"CCO[C@H](C(=O)Nc1nnc(N[C@@H]2CCN(c3cccnn3)C2)s1)c1cccc(OC(F)F)c1 (single isomer, unassigned) [17(b)]",–,–
1.46,"COC(C(=O)Nc1nnc(N[C@@H]2CCN(c3ccc(F)nn3)C2)s1)c1cccc(N2CC(F)(F)C2)c1 (stereo partly drawn) [Example 41, 2-[3-(3,3-difluoroazetidin-1-yl)phenyl]-N-[5-[[(3R)-1-(6-fluoropyridazin-3-yl)pyrrolidin-3-yl]amino]-1,3,4-thiadiazol-2-yl]-2-methoxy-acetamide]",–,–
2.5,"CO[C@H](C(=O)Nc1nnc(N[C@@H]2CCN(c3cccnn3)C2)s1)c1cccc(N2CC(F)(F)C2)c1 (single isomer, unassigned) [Example 2(a)]",–,–
